Patent publication US8044204B2, “8-methoxy-9H-isothiazolo[5,4-b]quinoline-3,4-diones and related compounds as anti-infective agents” (Achillion Pharmaceuticals, Inc., priority 2005, dated 2011)

Key:
S. aureus ATCC 29213 = experiment: Minimum Inhibitory Concentration (MIC) assay, S. aureus; format: cell-based; conditions: Staphylococcus aureus, ATCC29213; broth microdilution; read-out: MIC against S. Aureus
Description: (§1) The antimicrobial activity of the compounds of the invention may be evaluated by a number of methods, including the following visual minimum inhibitory concentration (MIC) assay. This assay determines the minimum concentration of compound required to inhibit growth of a bacterial strain.
(§2) Minimum Inhibitory Concentration (MIC) Assay
(§3) Whole-cell antibacterial activity is determined by broth microdilution using conditions recommended by the NCCLS (see National Committee for Clinical Laboratory Standards. 2001. Performance standards for antimicrobial susceptibility testing: 11th informational supplement. Vol. 21, no. 1, M100-S11. National Committee for Clinical Laboratory Standards, Wayne, Pa.). Test compounds are dissolved in DMSO and diluted 1:50 in Mueller-Hinton II broth (Becton-Dickinson) to produce a 256 μg/ml stock solution. In a 96-well microtiter plate, the compound solution is serially two-fold diluted in Mueller-Hinton II broth. After the compounds are diluted, a 50 μl aliquot of the test organism (˜1×10^6 cfu/mL) is added to each well of the microtiter plate. The final test concentrations ranges from 0.125-128 μg/mL. Inoculated plates are incubated in ambient air at 37° C. for 18 to 24 hours. The organisms selected for testing included laboratory strains S. aureus ATCC 29213 and E. coli ATCC 25922 (strains purchased from American Type Culture Collection, Manassas, Va.), S. aureus FQR700699, and Paeruginosa 27853. The minimum inhibitory concentration (MIC) is determined as the lowest concentration of compound that inhibited visible growth of the test organism.

E. coli ATCC 25922 = experiment: Minimum Inhibitory Concentration (MIC) assay, E. coli; format: cell-based; conditions: Escherichia coli, ATCC25922; broth microdilution; read-out: MIC against E. coli
Description: as §1, §2, §3

MIC (S. aureus ATCC 29213) [mg/L] | MIC (E. coli ATCC 25922) [mg/L] | SMILES
≤ 1 | ≤ 1 | CC1CN(c2cc3c(cc2F)c(=O)c2c(=O)[nH]sc2n3C2CC2)CCN1 (centres unmarked) [Compound 17, 9-cyclopropyl-6-fluoro-7-(3-methyl-piperazin-1-yl)isothia-zolo[5,4-b]quinoline-3,4(2H,9H)-dione]
≤ 1 | ≤ 1 | O=c1[nH]sc2c1c(=O)c1cc(F)c(N3CCC(O)C3)cc1n2C1CC1 (centres unmarked) [Compound 18, 9-cyclopropyl-6-fluoro-7-(3-hydroxy-pyrrolidin-1-yl)isothia-zolo[5,4-b]quinoline-3,4(2H,9H)-dione]
≤ 1 | ≤ 1 | O=c1[nH]sc2c1c(=O)c1cc(F)c(N3CCOCC3)cc1n2C1CC1 [Compound 19, 9-cyclopropyl-6-fluoro-7-morpholino-isothiazolo[5,4-b]quinoline-3,4(2H,9H)-dione]
≤ 1 | ≤ 1 | CN1CCN(c2cc3c(cc2F)c(=O)c2c(=O)[nH]sc2n3C2CC2)CC1 [Compound 21, 9-cyclopropyl-6-fluoro-7-(4-methyl-piperazin-1-yl)isothia-zolo[5,4-b]quinoline-3,4(2H,9H)-dione]
≤ 1 | ≤ 1 | CN(C)C1CCN(c2cc3c(cc2F)c(=O)c2c(=O)[nH]sc2n3C2CC2)C1 (centres unmarked) [Compound 22, 9-cyclopropyl-7-(3-(dimethyl-amino)pyrrolidin-1-yl)-6-fluoroiso-thiazolo[5,4-b]quinoline-3,4(2H,9H)-dione]
≤ 1 |  | O=c1[nH]sc2c1c(=O)c1cc(F)c(N3CCCCC3)cc1n2C1CC1 [Compound 23, 9-cyclopropyl-6-fluoro-7-(piperidin-1-yl)isothia-zolo[5,4-b]quinoline-3,4(2H,9H)-dione]
≤ 1 |  | O=c1[nH]sc2c1c(=O)c1cc(F)c(N3CCCC3)cc1n2C1CC1 [Compound 24, 9-cyclopropyl-6-fluoro-7-(pyrrolidin-1-yl)isothia-zolo[5,4-b]quinoline-3,4(2H,9H)-dione]
≤ 1 |  | CN(C(=O)OC(C)(C)C)C1CCN(c2cc3c(cc2F)c(=O)c2c(=O)[nH]sc2n3C2CC2)C1 (centres unmarked) [Compound 25, tert-butyl 1-(9-cyclopropyl-6-fluoro-3,4-dioxo-2,3,4,9-tetrahydroiso-thiazolo[5,4-b]quinolin-7-yl)pyrrolidin-3-yl(methyl) carbamate]
≤ 1 | ≤ 1 | CC(C)(C)OC(=O)N1CCN(c2cc3c(cc2F)c(=O)c2c(=O)[nH]sc2n3C2CC2)CC1 [Compound 26, tert-butyl 4-(9-cyclopropyl-6-fluoro-3,4-dioxo-2,3,4,9-tetrahydroiso-thiazolo[5,4-b]quinolin-7-yl)piperazine-1-carboxylate]
≤ 1 | ≤ 1 | CC(C)(C)OC(=O)NC1CCN(c2cc3c(cc2F)c(=O)c2c(=O)[nH]sc2n3C2CC2)C1 (centres unmarked) [Compound 27, tert-butyl 1-(9-cyclopropyl-6-fluoro-3,4-dioxo-2,3,4,9-tetrahydroiso-thiazolo[5,4-b]quinolin-7-yl)pyrrolidin-3-ylcarbamate]
≤ 1 | ≤ 1 | O=c1[nH]sc2c1c(=O)c1cc(F)c(N3CCSCC3)cc1n2C1CC1 [Compound 28, 9-cyclopropyl-6-fluoro-7-thiomorpho-linoiso-thiazolo[5,4-b]quinoline-3,4(2H,9H)-dione]
≤ 1 | ≤ 1 | O=c1[nH]sc2c1c(=O)c1cc(F)c(NCCN3CCOCC3)cc1n2C1CC1 [Compound 29, 9-cyclopropyl-6-fluoro-7-(2-morpholino-ethyl-amino)iso-thiazolo[5,4-b]quinoline-3,4(2H,9H)-dione]
≤ 1 | ≤ 1 | O=c1[nH]sc2c1c(=O)c1cc(F)c(N3CCN(CCN4CCCC4)CC3)cc1n2C1CC1 [Compound 30]
≤ 1 | ≤ 1 | CN(C)CCN1CCN(c2cc3c(cc2F)c(=O)c2c(=O)[nH]sc2n3C2CC2)CC1 [Compound 32, 9-cyclopropyl-7-(4-(2-(dimethyl-amino)ethyl)piperazin-1-yl)-6-fluoroiso-thiazolo[5,4-b]quinoline-3,4(2H,9H)-dione]
≤ 1 | ≤ 1 | O=c1[nH]sc2c1c(=O)c1cc(F)c(N3CCN(CCN4CCOCC4)CC3)cc1n2C1CC1 [Compound 33, 9-cyclopropyl-6-fluoro-7-(4-(2-morpho-linoethyl)piperazin-1-yl)isothia-zolo[5,4-b]quinoline-3,4(2H,9H)-dione]
≤ 1 |  | COc1c(N2CC[C@H](C(C)(C)N)C2)ccc2c(=O)c3c(=O)[nH]sc3n(C3CC3)c12 [Compound 60, (S)-7-(3-(2-aminopropan-2-yl)pyrrolidin-1-yl)-9-cyclopropyl-8-methoxyiso-thiazolo[5,4-b]quinoline-3,4(2H,9H)-dione]
≤ 1 |  | COc1c(N2CC[C@@H](CN)C2)ccc2c(=O)c3c(=O)[nH]sc3n(C3CC3)c12 [Compound 65, (S)-7-(3-(aminomethyl)-pyrrolidin-1-yl)-9-cyclopropyl-8-methoxyiso-thiazolo[5,4-b]quinoline-3,4(2H,9H)-dione]
≤ 1 |  | CC[C@H](NC)[C@@H]1CCN(c2c(F)cc3c(=O)c4c(=O)[nH]sc4n(C4CC4)c3c2OC)C1 [Compound 91, 9-cyclopropyl-6-fluoro-8-methoxy-7-((R)-3-((S)-1-(methylamino)-propyl)pyrrolidin-1-yl)isothia-zolo[5,4-b]quinoline-3,4(2H,9H)-dione]
≤ 1 |  | COc1c(N2CC[C@@H](N)C2)c(F)cc2c(=O)c3c(=O)[nH]sc3n(C3CC3)c12 [Compound 96, (R)-7-(3-amino-pyrrolidin-1-yl)-9-cyclopropyl-6-fluoro-8-methoxyiso-thiazolo[5,4-b]quinoline-3,4(2H,9H)-dione]
≤ 1 |  | COc1c(N2CC[C@@H](N)C2)ccc2c(=O)c3c(=O)[nH]sc3n(C3CC3)c12 [Compound 97, (R)-7-(3-amino-pyrrolidin-1-yl)-9-cyclopropyl-8-methoxyiso-thiazolo[5,4-b]quinoline-3,4(2H,9H)-dione]
≤ 1 |  | CN[C@@H]1CCN(c2c(F)cc3c(=O)c4c(=O)[nH]sc4n(C4CC4)c3c2OC)C1 [Compound 98, (R)-9-cyclo-propyl-6-fluoro-8-methoxy-7-(3-(methylamino)-pyrrolidin-1-yl)isothia-zolo[5,4-b]quinoline-3,4(2H,9H)-dione]
≤ 1 |  | CN[C@@H]1CCN(c2ccc3c(=O)c4c(=O)[nH]sc4n(C4CC4)c3c2OC)C1 [Compound 99, (R)-9-cyclo-propyl-8-methoxy-7-(3-(methyl-amino)-pyrrolidin-1-yl)iso-thiazolo[5,4-b]quinoline-3,4(2H,9H)-dione]
≤ 1 |  | COc1c(N2CCC(N)(CO)C2)c(F)cc2c(=O)c3c(=O)[nH]sc3n(C3CC3)c12 (centres unmarked) [Compound 109, 7-(3-amino-3-(hydroxy-methyl)-pyrrolidin-1-yl)-9-cyclo-propyl-6-fluoro-8-methoxyiso-thiazolo[5,4-b]quinoline-3,4(2H,9H)-dione]
≤ 1 |  | COc1c(N2CC[C@@H]([C@@H](C)N)C2)ccc2c(=O)c3c(=O)[nH]sc3n(C3CC3)c12 [Compound 110, 7-((R)-3-((R)-1-aminoethyl)-pyrrolidin-1-yl)-9-cyclo-propyl-8-methoxyiso-thiazolo[5,4-b]quinoline-3,4(2H,9H)-dione]
≤ 1 |  | COc1c(N2CC[C@@H](C(C)NC3CCCC3)C2)c(F)cc2c(=O)c3c(=O)[nH]sc3n(C3CC3)c12 (stereo partly drawn) [Compound 113, (R)-7-(3-(1-(cyclopentyl-amino)ethyl)pyrrolidin-1-yl)-9-cyclopropyl-6-fluoro-8-methoxyiso-thiazolo[5,4-b]quinoline-3,4(2H,9H)-dione]

SMILES | MIC (S. aureus ATCC 29213) [mg/L] | MIC (E. coli ATCC 25922) [mg/L]
O=c1[nH]sc2c1c(=O)c1cc(F)c(N3CCNCC3)cc1n2C1CC1 [Compound 20, 9-cyclopropyl-6-fluoro-7-(piperazin-1-yl)isothia-zolo[5,4-b]quinoline-3,4(2H,9H)-dione] | ≤ 1 | ≤ 1
CCn1c2cc(N3CCNCC3)c(F)cc2c(=O)c2c(=O)[nH]sc21 [Compound 31, 9-ethyl-6-fluoro-7-(piperazin-1-yl)isothia-zolo[5,4-b]quinoline-3,4(2H,9H)-dione] | ≤ 1 | ≤ 1
CCn1c2s[nH]c(=O)c2c(=O)c2cc(F)c(N3CCNCC3)c(OC)c21 [Compound 62, 9-ethyl-6-fluoro-8-methoxy-7-(piperazin-1-yl)isothia-zolo[5,4-b]quinoline-3,4(2H,9H)-dione] | ≤ 1 | 
COc1c(N2C[C@@H]3CCCN[C@@H]3C2)c(F)cc2c(=O)c3c(=O)[nH]sc3n(C3CC3)c12 [Compound 69, 9-cyclopropyl-6-fluoro-8-methoxy-7-((4aS,7aS)-octahydro-pyrrolo[3,4-b]pyridin-6-yl)isothia-zolo[5,4-b]quinoline-3,4(2H,9H)-dione] | ≤ 1 | 
COc1cc2c(=O)c3c(=O)[nH]sc3n(C3CC3)c2c(F)c1N1CCNCC1 [Compound 84, 9-cyclopropyl-8-fluoro-6-methoxy-7-(piperazin-1-yl)isothia-zolo[5,4-b]quinoline-3,4(2H,9H)-dione] |  | ≤ 1
